Experimental data as given in US20030166651A1, “Novel 3-substituted 1,2,4-benzotriazines, a method for their production and the use thereof” (priority 1999, published 2003).
≈ marks a conversion by molar mass, not a printed value.

Columns and labels:
Assay type in all cases: cell-based
[1] = tested on: HeLa; assay: Inhibition of cell growth, HeLa cells; settings: three days at 37° C., microscope assessment; for IC50: Homo sapiens, 72 h, read-out: IC50 value (50% inhibition of cell growth)
Protocol: (§1) Aqueous sterile solutions of each substance to be tested are injected into 1 ml of the respective cell stock solution at concentration steps of 2-50 μg each time. Subsequently, the test chambers are developed together with a non-treated reference chamber for three days at 37° C. Assessment is performed using a microscope. Cell growth or cell decomposition (condition of cell membrane and cell nucleus) is compared to non-treated reference cells.

[2] = tested on: Hep2; assay: Inhibition of cell growth, Hep2 cells; settings: three days at 37° C., microscope assessment; for IC50: Homo sapiens, HEp-2, 72 h, read-out: IC50 value (50% inhibition of cell growth)
Protocol: as §1

[3] = tested on: Peritoneal carcinoma; assay: Inhibition of cell growth, peritoneal carcinoma cells; settings: 72 h, three days at 37° C., microscope assessment, read-out: IC50 value (50% inhibition of cell growth)
Protocol: as §1

[4] = tested on: Pleural carcinoma; assay: Inhibition of cell growth, pleural carcinoma cells; settings: 72 h, three days at 37° C., microscope assessment, read-out: IC50 value (50% inhibition of cell growth)
Protocol: as §1

[5] = tested on: permanent cell cultures such as HeLa, Hep2 cells, of peritoneal carcinoma and pleural carcinoma cells; assay: Inhibition of cell growth, overall statement on the tumor cell cultures
Protocol: as §1

Row | Compound | IC50 value (50% inhibition of cell growth) [1] [µg/mL] | IC50 [2] [µg/mL] | IC50 [1] [µg/mL] | IC50 [3] [µg/mL] | IC50 [4] [µg/mL] | inhibition of cell growth / antitumor activity, result in words [5] | IC50 value (50% inhibition of cell growth) [2] [µg/mL]
1 | 3-(D-galacto-tetritol-1-yl)-1,2,4-benzotriazine [Compound i] | 400 |  |  |  |  |  | 
2 | COC(=O)Cc1nnc2ccc(Cl)cc2n1 [Compound b, 3-(methoxycarbonylmethyl)-6-chlorobenzo-1,2,4-triazine] |  | 120 (≈ 505 µM) | 160 (≈ 673 µM) | 150 (≈ 631 µM) | 500 (≈ 2100 µM) |  | 
3 | COC(=O)Cc1nnc2cccc(Cl)c2n1 [Compound c, 3-(methoxycarbonylmethyl)-5-chlorobenzo-1,2,4-triazine] |  | 16 (≈ 67.3 µM) | 8 to 16 (≈ 33.7 to 67.3 µM) | 12 (≈ 50.5 µM) |  | preferred activity | 
4 | COC(=O)Cc1nnc2ccc(Cl)c(N)c2n1 [Compound d, 3-(methoxycarbonylmethyl)-5-amino-6-chlorobenzo-1,2,4-triazine] |  | 500 (≈ 1980 µM) | 50 (≈ 198 µM) | 25 to 30 (≈ 98.9 to 119 µM) | 500 (≈ 1980 µM) |  | 
5 | CCOC(=O)Cc1nnc2ccc(Br)cc2n1 [Compound g, 3-(ethoxycarbonylmethyl)-6-bromobenzo-1,2,4-triazine] |  | 8 to 16 (≈ 27 to 54 µM) | 8 to 16 (≈ 27 to 54 µM) | 35 (≈ 118 µM) |  | preferred activity | 
6 | OC[C@@H](O)[C@@H](O)[C@H](O)c1nnc2ccccc2n1 [Compound h, 3-(D-arabino-tetritol-1-yl)-1,2,4-benzotriazine] | 150 |  |  |  |  |  | 150
7 | OC[C@@H](O)[C@@H](O)[C@H](O)c1nnc2ccc(Cl)cc2n1 [Compound k, 3-(D-arabino-tetritol-1-yl)-6-chlorobenzo-1,2,4-triazine] | 250 |  |  |  |  |  | 
8 | CC(C)NC(=O)Cc1nnc2ccccc2n1 [Compound l, 3-(isopropylaminocarbonylmethyl)-1,2,4-benzotriazine] |  |  |  |  |  | preferred activity | 
